Values of other authors in patent publication EP0398143B1, “Labeled chemotactic peptides to image focal sites of infection or inflammation” (THE GENERAL HOSPITAL CORPORATION, priority 1989, dated 1990).
Non-standard residues stand in square brackets, D forms with d. Residues, ends and D or L forms follow the SMILES beside them. *: point of attachment. Nle = CCCC[C@H](N)C(=O)O; For = O=C*

Target: T1, receptors on human neutrophils (Homo sapiens, UniProt P21462)
T1 construct: host or cells: human neutrophils (endogenous receptor)
T1 sequence (P21462 1-350): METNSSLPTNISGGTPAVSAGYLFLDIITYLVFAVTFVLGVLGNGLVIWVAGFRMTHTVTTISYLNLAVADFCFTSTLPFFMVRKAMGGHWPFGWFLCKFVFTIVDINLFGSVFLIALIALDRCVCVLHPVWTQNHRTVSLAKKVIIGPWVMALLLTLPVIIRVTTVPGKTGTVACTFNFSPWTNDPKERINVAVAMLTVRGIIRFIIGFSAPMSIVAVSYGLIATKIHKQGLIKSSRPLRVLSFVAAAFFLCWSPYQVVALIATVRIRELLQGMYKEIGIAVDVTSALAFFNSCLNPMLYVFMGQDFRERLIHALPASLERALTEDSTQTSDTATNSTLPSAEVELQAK
Details: peptide labeled with ¹²⁵I at the Tyr residue

Structure (SMILES): CCCC[C@H](NC=O)C(=O)N[C@@H](CC(C)C)C(=O)N[C@@H](Cc1ccccc1)C(=O)N[C@@H](CCCC)C(=O)N[C@@H](Cc1ccc(O)cc1)C(=O)N[C@@H](CCCCN)C(=O)O [N-formyl-Nle-Leu-Phe-Nle-Tyr-Lys] (For-[Nle]LF[Nle]YK-OH)
- binding to receptors on human neutrophils: bind strongly
